From publication PMC3424241, “The Octadecaneuropeptide ODN Protects Astrocytes against Hydrogen Peroxide-Induced Apoptosis via a PKA/MAPK-Dependent Mechanism” (PLoS ONE, 2012)

How the values were obtained:
cultured rat astrocytes = experiment: Cell survival after H2O2, FDA fluorescence; type: cell-based
Method: Secondary cultures of rat cortical astrocytes were prepared as previously described [64]with minor modifications. Briefly, cerebral hemispheres from newborn Wistar rats were collected in DMEM/F12 (2∶1; v/v) culture medium supplemented with 2 mM L-glutamine, 1‰ insulin, 5 mM HEPES, 0.4% glucose and 1% of the antibiotic-antimycotic solution. The tissues were dissociated mechanically with a syringe equipped with a 1-mm gauge needle, and filtered through a 100-µm sieve (Falcon, Franklin Lakes, NJ, USA). […] When cultures were confluent, astrocytes were isolated by shaking overnight the flasks on an orbital agitator. Adhesive cells were detached by trypsination and preplated for 5 min to discard contaminating microglial cells. Then, the non-adhering astrocytes were harvested and plated on 35-mm hydrophilic surface Petri dishes at a density of 3×10^5 cells/ml. […] The cells were incubated at 37°C in a humid atmosphere (5% CO2). […] All experiments were performed on 5- to 7-day-old secondary cultures.
Cultured cells were incubated at 37°C with fresh serum-free culture medium in the absence or presence of H2O2 and/or ODN for 1 h. Cells were then incubated for 10 min at 37°C with 0.3 µg/ml calcein-AM (producing green fluorescence in living cells), rinsed twice with culture medium without probe and examined on an inverted microscope (Leica, Heidelberg, Germany) equipped with a double pass filter.
For quantification of surviving astrocytes, cells were incubated for 8 min with 15 µg/ml FDA-AM, rinsed twice with phosphate-buffered saline (PBS) and lysed with a Tris/HCl solution containing 1% sodium dodecyl sulfate (SDS). Fluorescence was measured with excitation at 485 nm and emission at 538 nm, using a microplate reader (Bio-Tek FLx 800).

Bcl-2 = Bcl-2 mRNA level, quantitative RT-PCR; type: cell-based, rat; details: ODN 0.1 nM
Method: (§1) Secondary cultures of rat cortical astrocytes were prepared as previously described [64]with minor modifications. Briefly, cerebral hemispheres from newborn Wistar rats were collected in DMEM/F12 (2∶1; v/v) culture medium supplemented with 2 mM L-glutamine, 1‰ insulin, 5 mM HEPES, 0.4% glucose and 1% of the antibiotic-antimycotic solution. The tissues were dissociated mechanically with a syringe equipped with a 1-mm gauge needle, and filtered through a 100-µm sieve (Falcon, Franklin Lakes, NJ, USA). Dissociated cells were resuspended in culture medium supplemented with 10% FBS, plated in 175-cm^2 flasks (Greiner Bio-one GmbH, Frickenhausen, Germany) and incubated at 37°C in a 5% CO2/[…] atmosphere. When cultures were confluent, astrocytes were isolated by shaking overnight the flasks on an orbital agitator. Adhesive cells were detached by trypsination and preplated for 5 min to discard contaminating microglial cells. Then, the non-adhering astrocytes were harvested and plated on 35-mm hydrophilic surface Petri dishes at a density of 3×10^5 cells/ml. […]
(§2) Cultured cells were incubated at 37°C for 1 h with fresh serum-free medium in the absence or presence of test substances. […] The amount of Bax and Bcl-2 cDNA in each sample was calculated by the comparative threshold cycle (Ct) method and expressed as 2^exp(−ΔΔCt) using glyceraldehyde-3-phosphate dehydrogenase as an internal control.

Bax = Bax mRNA level, quantitative RT-PCR; type: cell-based, rat; details: ODN 0.1 nM
Method: as §1, §2

[1] = 10 min pre-incubation, 1 h 300 µM H2O2

## ODN: octadecaneuropeptide, endozepine derived from diazepam-binding inhibitor; endogenous ligand of central-type benzodiazepine and metabotropic receptors; synthesized by Fmoc procedure (QATVGDVNTDRPGLLDLK; Octadecaneuropeptide; UniProt P11030 34-51, looked up)
Cultured rat astrocytes; ODN 0.1 nM, 300 µM H2O2, FDA fluorescence
  time-course of protection against H2O2-induced cell injury: totally blocked H2O2-induced cell injury during the first 60 min
Cultured rat astrocytes; ODN 0.1 nM, refills of 0.1 nM after 30, 60, 90, 120 and 150 min, 300 µM H2O2
  duration of the protective effect with fresh doses of peptide: ≥ 150 min
Cultured rat astrocytes; ODN 0.1 nM, 10 min pre-incubation, 1 h 300 µM H2O2, FDA fluorescence
  maximum effect (survival): ~95%
Cultured rat astrocytes; single dose of ODN 0.1 nM, 300 µM H2O2
  time after onset of peptide administration at which the protective action vanished: 180 min
Cultured rat astrocytes; time-course, ODN 0.1 nM, 300 µM H2O2
  delay of H2O2-induced cell death: approximately 1 h
Bcl-2; [1]
  effect on H2O2-induced inhibition of Bcl-2 expression: suppressed the inhibitory effect of H2O2 on Bcl-2 expression
Bcl-2; 1 h, RT-PCR, 6 wells from three cultures
  effect on Bcl-2 mRNA levels, peptide alone: induced an increase of Bcl-2 mRNA levels by itself
Bax; [1]
  effect on H2O2-induced increase of Bax mRNA levels: totally prevented the increase of Bax mRNA levels induced by H2O2
Bax; 1 h, RT-PCR
  effect on Bax mRNA levels, peptide alone: had no effect on Bax mRNA levels
